Series [1] relates to RAW264.7. Briefly: Anti-inflammatory activity in mouse RAW264.7 cells assessed as inhibition of LPS-induced IL-6 mRNA level at 30 uM preincubated for 30 mins followed by LPS stimulation measured after 4 hrs by RT-PCR method relative to control. Format: functional.
Series [2] relates to RAW264.7. Briefly: Cytotoxicity against mouse RAW264.7 cells assessed as reduction in cell viability at 30 to 50 uM after 18 hrs by MTT assay. Format: cell-based. The settings on record: raw264.7, 18 h. A general note: Tetrazolium assays rely on reduction of a dye to a coloured formazan, in cell work by metabolically active cells.
Series [3] deals with RAW264.7. As to the kind of experiment: Cytotoxicity against mouse RAW264.7 cells assessed as reduction in cell viability at 30 uM after 18 hrs by MTT assay. The settings on record: raw264.7, 18 h. It counts as cell-based.
In series [4] the test system is RAW264.7. Briefly: Anti-inflammatory activity in mouse RAW264.7 cells assessed as inhibition of LPS-induced IL-1beta mRNA level at 30 uM preincubated for 30 mins followed by LPS stimulation measured after 4 hrs by RT-PCR method relative to control. It counts as functional.
The subject of series [5] is RAW264.7. Briefly: Cytotoxicity against mouse RAW264.7 cells assessed as reduction in cell viability up to 30 uM after 18 hrs by MTT assay. Format: cell-based. The conditions noted are these: raw264.7, 18 h.
Series [6] relates to RAW264.7. Briefly: Anti-inflammatory activity in mouse RAW264.7 cells assessed as inhibition of LPS-induced NO production at 30 uM preincubated for 30 mins followed by LPS stimulation measured after 4 hrs by Griess assay relative to control. It counts as functional. (Griess reagent forms a coloured azo dye with nitrite.)
The test system of series [7] is RAW264.7. As to the kind of experiment: Anti-inflammatory activity in mouse RAW264.7 cells assessed as inhibition of LPS-induced ROS production measured after 4 hrs by H2DCFDA-AM probe based fluorescence assay. Format: functional, cell-based. The conditions noted are these: for IC50: RAW264.7, 4 h.
The test system of series [8] is RAW264.7. Briefly: Anti-inflammatory activity in mouse RAW264.7 cells assessed as inhibition of LPS-induced ROS production at 30 uM measured after 4 hrs by H2DCFDA-AM probe based fluorescence assay. It counts as functional, cell-based.
The subject of series [9] is RAW264.7. As to the kind of experiment: Cytotoxicity against mouse RAW264.7 cells assessed as reduction in cell viability at 30 uM after 1 hr by MTT assay. Format: cell-based. The conditions noted are these: raw264.7, 1 h.
The test system of series [10] is RAW264.7. As to the kind of experiment: Cytotoxicity against mouse RAW264.7 cells assessed as reduction in cell viability after 18 hrs by MTT assay. Format: cell-based. The settings on record: raw264.7, 18 h.
The test system of series [11] is RAW264.7. Briefly: Anti-inflammatory activity in mouse RAW264.7 cells assessed as inhibition of LPS-induced ROS production at 1 to 10 uM measured after 4 hrs by H2DCFDA-AM probe based fluorescence assay. It counts as functional, cell-based.
Series [12] can be described thus: Cytotoxicity against mouse RAW264.7 cells assessed as cell viability at 30 uM after 18 hrs by MTT assay relative to control. Format: cell-based. The settings on record: read-out: Activity.

By inhibition is commonly meant how much of the control response was suppressed. As a reminder, the IC50 is the concentration that gives 50% inhibition.

Active and inactive are the calls of the source. The rule behind the calls is not given here.

On to `COc1ccc2cc1Oc1ccc(cc1)C[C@H](N)C(=O)NCCC2`, for which the inhibition at 30 µM in series [1] is > 60%; in [4] it was 30 to 50%; in series [6], > 80%. In addition, the Activity entry in series [2], in [3] and in series [5] was “Non-Toxic” each time. The IC50 in series [7] is 30 µM. In addition, the inhibition result in [8] is “Active”.

With `COc1ccc2cc1Oc1ccc(cc1)C[C@@H]1NC(=O)N(CCC2)C1=O`, the Activity result in series [3] is recorded as “Non-Toxic”.

As for `N[C@H]1Cc2ccc(cc2)Oc2cc(ccc2O)CCCNC1=O`, the Activity entry in series [3] was “Non-Toxic”. Further, the inhibition entry in [8] is “inactive”.

In the case of `Oc1ccc2cc1Oc1ccc(cc1)CCc1cn(nn1)CC2`, the Activity entry in series [3] is listed as “Non-Toxic”.

For `Oc1ccc2cc1Oc1ccc(cc1)CC/C=C\C(O)CC2` (centres undefined), the inhibition at 30 µM was > 60% in series [1], 30 to 50% in series [4] and > 80% in series [6]. The Activity result in series [2] was “Toxic”; in series [3], “Non-Toxic”; in [5] it was “Non-Toxic”. In series [7], the IC50 lay in the range of 30 to 50 µM. In addition, the inhibition result in [8] is “Active”.

On to `COc1ccc(CCC(O)/C=C\CCc2ccc(O)cc2)cc1Br` (centres undefined), for which the Activity entry in series [9] is given as “Non-Toxic”; in [3] it was “Toxic”. Moreover, the inhibition result in series [8] was “Active”.

`O=C1N[C@H]2Cc3ccc(cc3)Oc3cc(ccc3O)CCCN1C2=O`: the Activity entry in series [3] was “Non-Toxic”.

On to `COc1ccc2cc1Oc1ccc(cc1)CCC(=O)NCCC2`, for which, in [3], the Activity result is recorded as “Non-Toxic”.

For `COc1ccc(CCCNC(=O)CCc2ccc(O)cc2)cc1Br`, the values for the inhibition at 30 µM in [1], in series [4] and in series [6] were > 60%, 30 to 50% and > 80%, respectively. Also, the values for the Activity entry in series [2], in series [3] and in [5] were “Toxic”, “Non-Toxic” and “Non-Toxic”, respectively. For the same compound, the IC50 in series [7] lay within 30 to 50 µM. For the same compound, the inhibition entry in series [8] is “Active”.

For `COc1ccc(CCn2cc(CCc3ccc(O)cc3)nn2)cc1Br`, the Activity entry in [3] is “Non-Toxic”.

As for `Cc1c(C)c2c(c(C)c1O)CCC(C)(C(=O)O)O2` (centres undefined) [TROLOX], in [3], the Activity entry was “Non-Toxic”. In series [7], the inhibition result is “Dose-dependent effect” and the IC50 was 30 µM.

Turning to `COc1ccc2cc1Oc1ccc(cc1)CC/C=C\C(O)CC2` (centres undefined), the Activity entry in series [3] is “Non-Toxic”.

For the compound `O=C1CCc2ccc(cc2)Oc2cc(ccc2O)CCCN1`, the results for the inhibition at 30 µM in [1], in [4] and in [6] were > 60%, 30 to 50% and 65%, respectively. The Activity entry in series [2], in series [3] and in series [5] was “Non-Toxic” in each case. Further, the IC50 in [7] lay within 30 to 50 µM. In addition, the inhibition entry in series [8] was “Active”.

`COc1ccc2cc1Oc1ccc(cc1)CCc1cn(nn1)CC2`: the Activity entry in series [3] is listed as “Non-Toxic”.

`COc1ccc(CCCNC(=O)[C@@H](N)Cc2ccc(O)cc2)cc1Br`: the results for the inhibition at 30 µM in [1], in series [4] and in [6] were > 60%, 30 to 50% and > 80%, respectively. In addition, the Activity entry in series [2], in [3] and in series [5] was “Non-Toxic” each time. In series [7], the half-inhibitory concentration (IC50) amounted to 30 µM. Also, the inhibition entry in series [8] was “Active”.

As for `Oc1ccc2cc1Oc1ccc(cc1)CC/C=C\C=C\C2`, the inhibition entry in [1], in [4] and in series [8] was “Active” each time. Also, the Activity result in [10] was “Dose-dependent effect”; in series [9], “Non-Toxic”. Besides, the inhibition result in series [11] is “inactive”. Besides, the inhibition at 30 µM in [6] was > 65%. In addition, in series [7], the IC50 is 30 µM. Besides, in [12], the viability at 18 h, 30 µM is < 60%.

These data come from ChEMBL document CHEMBL4251613, “Synthesis and biological evaluation of diarylheptanoids as potential antioxidant and anti-inflammatory agents” (Eur J Med Chem, 2018).
